Reference: patent publication US20210024498A1, “TETRAHYDROPYRROLE COMPOUND, PREPARATION METHOD THEREFOR, PHARMACEUTICAL COMPOSITION CONTAINING SAME, AND USE THEREOF” (MEDICONNS (SHANGHAI) BIOPHARMACEUTICAL CO., LTD, priority 2017, published 2021)
Entries after “also recorded” stand apart in the source; their conditions may differ.

Experiments:
D2 receptor = target: T1, D2 receptor (Homo sapiens, UniProt P14416); assay: D2 receptor affinity assay (radioligand competition, 3H-7-OH-DPAT); type: binding; conditions: cloned D2 receptor expressed in HEK293 cell line; 3H-7-OH-DPAT 1 nM
T1 construct: expressed in transfected cells; host or cells: HEK293
Experimental: Bioactivity Test • I. D2 receptor affinity assay: The affinity of the compound to D2 receptor was determined by radioligand competition assay, and the cloned D2 receptor was expressed in HEK293 cell line. • II. D2 receptor function assay: The ability of the compound to antagonize the D2 receptor was determined using a calcium mobilization assay (FLIPR). • III. DAT receptor function assay: The ability of the compound to inhibit DAT was determined by neurotransmitter transporter absorption assay.
• Experimental buffer: 50 mM Tris-HCl, pH 7.4, 5 mM MgCl2 • Washing buffer: 50 mM Tris-HCl pH 7.4, stored at 4° C. ready for use.
• The compound and positive control 7-OH-DPAT were serially diluted with DMSO, with the initial concentration of 2 mM and 4 times serial dilution, a total of 10 concentrations. 1 μL was transferred to the designated position of the 96-well plate. • 1 μL droperidol (final concentration 10 μM) was added to the positive control well. 1 μL DMSO was added to the negative control well.
• Receptor cell membrane was diluted to 10 μg/well with corresponding experimental buffer, with 100 μL cell membrane/well.
• 3H-7-OH-DPAT was diluted to 2 nM with corresponding experimental buffer, and the final concentration was 1 nM.
• After 100 μL of cell membrane and isotope were added, respectively, the reaction plate of the D2 receptor was incubated at room temperature for 1 hour. The GF/C filter plate was soaked in 0.3% PEI solution for more than half an hour. After the reaction was completed, the cell membrane was collected on the GF/C filter plate using the […], washed 4 times with cold washing buffer, and then dried in an oven at 50° C. for 1 hour. The dried GF/C filter plate was sealed at the bottom, 50 μL of scintillation fluid was added to each well and the well was sealed. Reads were obtained by MicroBeta and the data was analyzed using GraphPad Prism 5.0.
Ki=IC50/(1+isotope concentration/Kd)

[1] = system: PCP-induced high locomotor activity in mice; assay: Phencyclidine (PCP) induced high locomotor activity (LMA) in mice; type: in vivo; set-up: Distance resulting from the activity, First 30 min / Distance resulting from the activity, Last 30 min: unit not given here; conditions: for Effect on PCP-induced high locomotor activity compared with olanzapine (in words) / Inhibition of PCP-induced high locomotor activity (in words): 5, 10, 20 mg/kg; for Effect on PCP-induced high locomotor activity compared with olanzapine (in words): p.o. vs olanzapine 5 mg/kg p.o.; for Inhibition of PCP-induced high locomotor activity (in words): p.o., P<0.05-0.01; for Distance resulting from the activity, First 30 min / Distance resulting from the activity, Last 30 min: PCP 5.0 mg/kg s.c., male ICR mice
Description: • 1. The effect of the compound on phencyclidine (PCP) induced high locomotor activity (LMA) in mice was detected.
The test compound MDC was milky white powder and stored in a shade and cool place (freshly formulated with 1% DMSO before use). […] Phencyclidine (PCP), purchased from Sigma Aldrich, was a grayish white powder (freshly formulated with normal saline before use). 1% DMSO was formulated by diluting pure DMSO (purity>99.5, purchased from Sigma-Aldrich) with normal saline.
(§1) Male ICR mice having weight 22±2 g were kept at 8 mice/cage with 12/12 hours light/dark cycle, temperature 23° C.±1° C., humidity 50% to 60%, free to eat and drink water.
The administration volume was 0.1 ml/10 g body weight; PCP was formulated with normal saline at a dose of 5 mg/kg.
The test compound MDC and olanzapine were administered by gavage and PCP was administered by subcutaneous injection.
(§2) After one week of acclimation, mice were randomly divided into 6 groups according to their body weight: negative control group, model group, positive control group, and low dose group, medium dose group and high dose group for the test compound. 8-10 animals/group.
(§3) Group 1: Negative control group: Normal saline (s.c.)+1% DMSO (10.0 ml/kg, p.o.);
Group 2: Model group: PCP (5.0 mg/kg, s.c.)+1% DMSO (10.0 ml/kg, p.o.);
Group 4: MDC low dose group: PCP (5.0 mg/kg, s.c.)+MDC (5 mg/kg, p.o.);
Group 5: MDC medium dose group: PCP (5.0 mg/kg, s.c.)+MDC (10 mg/kg, p.o.);
Group 6: MDC high dose group: PCP (5.0 mg/kg, s.c.)+MDC (20 mg/kg, p.o.).
After oral administration, the animals were immediately placed in a locomotor activity box and recorded by Shanghai Jiliang ( ? ) animal video analysis system for 1 hour.
(§4) After the experiment, the activity of the animals within 1 hour was analyzed using the trajectory analysis software of Shanghai Jiliang animal video analysis system to obtain the total distance resulting from the activity.

[2] = system: Amphetamine-induced high locomotor activity in mice; assay: Amphetamine-induced high locomotor activity (LMA) in mice; type: in vivo; set-up: Distance resulting from the activity, First 30 min / Distance resulting from the activity, Last 30 min: unit not given here; conditions: for Effect on Amphetamine-induced high locomotor activity compared with olanzapine (in words) / Inhibition of Amphetamine-induced high locomotor activity (in words): 5, 10, 20 mg/kg; for Effect on Amphetamine-induced high locomotor activity compared with olanzapine (in words): p.o. vs olanzapine 5.0 mg/kg p.o.; for Inhibition of Amphetamine-induced high locomotor activity (in words): p.o., P<0.05-0.01; for Distance resulting from the activity, First 30 min / Distance resulting from the activity, Last 30 min: Amphetamine 1.0 mg/kg s.c., male ICR mice
Experimental: The test compound MDC was a milky white powder and stored in a shade and cool place (formulated with 1% DMSO before use). […] Amphetamine, purchased from Sigma-Aldrich, was a white powder (formulated with normal saline before use). 1% DMSO was formulated by diluting pure DMSO (purity>99.5, purchased from Sigma) with normal saline.
as §1
The administration volume was 0.1 ml/10 g body weight; Amphetamine was freshly formulated with normal saline at a dose of 1.0 mg/kg and administered subcutaneously.
as §2, §3
Group 2: Model group: Amphetamine (1.0 mg/kg, s.c.)+1% DMSO (10.0 ml/kg, p.o.);
Group 4: MDC low dose group: Amphetamine (1.0 mg/kg, s.c.)+MDC (5 mg/kg, p.o.);
Group 5: MDC medium dose group: Amphetamine (1.0 mg/kg, s.c.)+MDC (10 mg/kg, p.o.);
Group 6: MDC high dose group: Amphetamine (1.0 mg/kg, s.c.)+MDC (20 mg/kg, p.o.).
After administration, the animals were immediately placed in a locomotor activity box and recorded by Shanghai Jiliang animal video analysis system for 1 hour.
as §4

[3] = 5 mg/kg p.o. (low dose group; olanzapine positive control)
[4] = 10 mg/kg p.o. (medium dose group)
[5] = 20 mg/kg p.o. (high dose group)

T1 sequence (P14416 whole entry): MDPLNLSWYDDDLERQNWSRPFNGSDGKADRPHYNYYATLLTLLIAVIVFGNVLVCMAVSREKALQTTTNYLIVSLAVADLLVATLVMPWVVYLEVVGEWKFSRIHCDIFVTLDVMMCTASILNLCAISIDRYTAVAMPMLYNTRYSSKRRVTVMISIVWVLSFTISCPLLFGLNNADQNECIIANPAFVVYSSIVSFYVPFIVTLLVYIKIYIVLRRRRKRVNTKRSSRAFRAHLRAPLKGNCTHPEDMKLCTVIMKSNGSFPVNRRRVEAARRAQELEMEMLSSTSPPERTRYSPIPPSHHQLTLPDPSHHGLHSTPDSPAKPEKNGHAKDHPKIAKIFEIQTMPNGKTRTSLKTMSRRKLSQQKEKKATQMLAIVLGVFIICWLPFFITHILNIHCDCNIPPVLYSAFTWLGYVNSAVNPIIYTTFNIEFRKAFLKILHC

IC50 (D2 receptor) | Structure (SMILES) | Effect on PCP-induced high locomotor activity compared with olanzapine (in words) [1] | Inhibition of PCP-induced high locomotor activity (in words) [1] | Distance resulting from the activity, First 30 min [1, 3] | Distance resulting from the activity, Last 30 min [1, 3] | Distance resulting from the activity, First 30 min [1, 4] | Distance resulting from the activity, Last 30 min [1, 4] | Distance resulting from the activity, First 30 min [1, 5] | Distance resulting from the activity, Last 30 min [1, 5] | Effect on Amphetamine-induced high locomotor activity compared with olanzapine (in words) [2] | Inhibition of Amphetamine-induced high locomotor activity (in words) [2] | Distance resulting from the activity, First 30 min [2, 3] | Distance resulting from the activity, Last 30 min [2, 3] | Distance resulting from the activity, First 30 min [2, 4] | Distance resulting from the activity, Last 30 min [2, 4] | Distance resulting from the activity, First 30 min [2, 5] | Distance resulting from the activity, Last 30 min [2, 5]
639 nM | O=S(=O)(CC(F)(F)F)Nc1cccc(C2CCN(Cc3c[nH]c4ccccc34)C2)c1 (stereo not shown) [MDC-161502-006, 1-(indole-3-methyl)-3-(3-trifluoroethanesulfonamidophenyl)pyrrolidine] | – | – | 327586 | 302499 | 286745 | 267834 | 248576 | 230867 | – | – | 340368 | 318973 | 298763 | 257632 | 270378 | 231584
120 nM | O=S(=O)(Nc1cccc(C2CCN(Cc3c[nH]c4ccccc34)C2)c1)c1cccs1 (stereo not shown) [MDC-161502-008, 1-(indole-3-methyl)-3-[3-(2-thiophenesulfonamido)phenyl]pyrrolidine] | equivalent to the effect of the positive drug olanzapine | inhibited PCP-induced high locomotor activity in mice | 299745 | – | 246900 | 230876 | 220968 | 189765 | equivalent to olanzapine | significantly inhibited | 287643 | 264309 | 253945 | 220678 | 209673 | 219876

Structure (SMILES) | IC50 (D2 receptor) | Effect on PCP-induced high locomotor activity compared with olanzapine (in words) [1] | Inhibition of PCP-induced high locomotor activity (in words) [1] | Distance resulting from the activity, First 30 min [1, 3] | Distance resulting from the activity, Last 30 min [1, 3] | Distance resulting from the activity, First 30 min [1, 4] | Distance resulting from the activity, Last 30 min [1, 4] | Distance resulting from the activity, First 30 min [1, 5] | Distance resulting from the activity, Last 30 min [1, 5] | Effect on Amphetamine-induced high locomotor activity compared with olanzapine (in words) [2] | Inhibition of Amphetamine-induced high locomotor activity (in words) [2] | Distance resulting from the activity, First 30 min [2, 3] | Distance resulting from the activity, Last 30 min [2, 3] | Distance resulting from the activity, First 30 min [2, 4] | Distance resulting from the activity, Last 30 min [2, 4] | Distance resulting from the activity, First 30 min [2, 5] | Distance resulting from the activity, Last 30 min [2, 5]
Oc1cccc(C2CCN(Cc3c[nH]c4ccccc34)C2)c1 (racemic) [MDC-161502-002, 1-(indole-3-methyl)-3-(3-hydroxyphenyl)pyrrolidine] | 14 nM | equivalent to the effect of the positive drug olanzapine; also recorded: significant advantages over olanzapine | inhibited PCP-induced high locomotor activity in mice | 241185 | 265712 | 211543 | 206789 | 158231 | 110918 | equivalent to olanzapine; also recorded: better than olanzapine | significantly inhibited | 284824 | 257329 | 250678 | 231296 | 180127 | 148036
